Data taken from patent US6924415B2 (Board of Regents, The University of Texas System, priority 2001, dated 2005).

Columns and labels:
ERK5 [1] = assay: ERK5 immunoprecipitation kinase assay (GST-MEF2C substrate) after treatment of cardiomyocytes; format: cell-based; conditions: at 60 min; 0.3M sorbitol or 200 μM H2O2; serum-deprived neonatal rat cardiomyocytes
Experimental: Top, ERK5 was immunoprecipitated from 200 μg of cellular lysate with an antibody specific for the carboxyl-terminal 20 amino acids. Kinase assays were performed with immunoprecipitated ERK5 using GST-MEF2C substrate in the presence of [γ-^32P]-ATP. GST-MEF2C phosphorylation was detected by autoradiography after SDS-PAGE. Middle, immunoblotting was performed on immunoprecipitated material using rabbit anti-ERK5 antibody. Bottom, levels of ^32P-phosphorylated GST-MEF2C were quantitated with a Phosphor Imager.
Following incubation for 30 min at 30° C., samples were separated by SDS-PAGE and transferred to a polyvinylidene difluoride (PVDF) membrane. The level of ^32P-labeled GST-fusion protein on the membrane was analyzed using a Phosphor Imager (Molecular Dynamics). The membrane was then immunoblotted with anti-ERK5 rabbit polyclonal antibody (StressGen) at a final concentration of 150 ng/ml and proteins were visualized using a chemiluminescence system (Santa Cruz).
Eighteen hours after plating, cells were changed into serum-free media and either incubated for an additional forty-eight hours prior to treatment with hypertrophic agents or infected with adenovirus at a multiplicity of infection of 100.
Following treatment, cardiomyocytes were harvested and ERK5 immunoprecipitation (IP) kinase assays were performed with a GST-MEF2C substrate.

ERK5 [2] = conditions: Kamakura et al., 1999; cited from earlier work
[3] = system: neonatal rat cardiomyocytes; assay: Morphometric analysis of cardiomyocytes (anti-sarcomeric α-actinin staining); format: cell-based; set-up: Area / Major axis / Minor axis / Major/Minor: dose or concentration left out as unconfirmed; conditions: for Area / Major axis / Major/Minor / Minor axis: virus moi 100, PE or LIF (1000 units/ml) where indicated, mean ± SD
skeletal α-actin = assay: RNA dot blot, fetal gene expression in cardiomyocytes: skeletal α-actin; format: cell-based; conditions: Rattus norvegicus, Cardiomyocyte; Adβ-gal-infected cells treated with LIF (1000 units/ml) or PE (50 μM) 24 hours; relative to uninfected untreated cells
Experimental: FIGS. 4A-B. MEK5 signaling contributes to the regulation of cardiomyocyte fetal gene expression by PE and LIF. (FIG. 4A) Cardiomyocytes were either not infected (−) or infected with MEK5WT, MEK5KM or β-gal adenoviruses at an moi of 20 and serum-deprived. Thirty-six hours post-infection, cells were either not treated or treated with 50 μM PE (black bar) or 1000 units/ml LIF (white bar) for an additional 24 hours. RNA was prepared and used for dot blots with oligonucleotide probes specific for skeletal α-actin, ANF or BNP. Signal intensity was quantitated using a Phosphor Imager. The average fold induction±SD of three independent experiments is shown. “-fold” induction is relative to uninfected cells without PE or LIF treatment. (FIG. 4B) Cardiomyocytes were either not infected or infected with MEK5DD or β-gal adenoviruses at an moi of 20 and serum-deprived. Forty-eight hours post-infection, the cells were harvested and RNA was prepared. Transcript levels for α-skeletal actin, ANF or BNP were determined as described in FIG. 4A. […]
To determine whether elevated MEK5 could also transduce signals that regulate fetal gene expression, the inventors treated cardiomyocytes infected with AdMEK5WT, AdMEK5KM or Ad[…]-gal with LIF or PE and analyzed expression of atrial natriuretic factor (ANF), brain natriuretic peptide (BNP) and skeletal α-actin (FIG. 4A). […]

| Molecule | activation of ERK5 (phosphorylation of GST-MEF2C) (ERK5 [1]) [fold] | inhibition of activation of ERK5 (ERK5 [2]) | Area [3] [μm^2] | Major axis [3] [μm] | Major/Minor [3] | Minor axis [3] [μm] | further results |
| --- | --- | --- | --- | --- | --- | --- | --- |
| OO [H2O2] | 5 |  |  |  |  |  |  |
| COc1cccc(-c2cc(=O)c3ccccc3o2)c1N [PD098059] |  | inhibit activation of ERK5 |  |  |  |  |  |
| CNC[C@H](O)c1cccc(O)c1 [PE, phenylephrine] |  |  | 5745 ± 1560 | 110 ± 20 | 1.71 ± 0.37 | 66 ± 12 | fold induction at 50 µM (skeletal α-actin): 4 to 5 |
| N#CC(=C(/N)Sc1ccccc1N)/C(C#N)=C(\N)Sc1ccccc1N [U0126] |  | inhibit activation of ERK5 |  |  |  |  |  |
| OC[C@@H](O)[C@@H](O)[C@H](O)[C@@H](O)CO [sorbitol] | 8 |  |  |  |  |  |  |
| LIF: IL-6 family cytokine, leukemia inhibitory factor |  |  | 3586 ± 1090 | 144 ± 36 | 5.06 | 33 ± 12 | cardiomyocyte elongation (morphology) ([3]; α-actinin staining): induced dramatic elongation |
